From patent US9351955B2, “Compounds and pharmaceutical compositions thereof for the treatment of cystic fibrosis” (Galapagos NV, priority 2013, dated 2016)
Read-outs that look alike come from different tables or passages of the source.

Key:
Type in all cases: cell-based
CFTR ΔF508 mutant [1] = target: T1, CFTR ΔF508 mutant (Homo sapiens, UniProt P13569, DEL508-508); assay: YFP-halide influx assay for the CFTR-ΔF508 mutation (96 well, CFBE41o- cells); conditions: read-out: EC50 measured by YFP-halide influx assay for the CFTR-ΔF508
T1 construct: expressed in transfected cells; host or cells: CFBE41o- (adenoviral transduction)
T1 sequence (P13569 with tags, fused parts or gaps DEL508-508): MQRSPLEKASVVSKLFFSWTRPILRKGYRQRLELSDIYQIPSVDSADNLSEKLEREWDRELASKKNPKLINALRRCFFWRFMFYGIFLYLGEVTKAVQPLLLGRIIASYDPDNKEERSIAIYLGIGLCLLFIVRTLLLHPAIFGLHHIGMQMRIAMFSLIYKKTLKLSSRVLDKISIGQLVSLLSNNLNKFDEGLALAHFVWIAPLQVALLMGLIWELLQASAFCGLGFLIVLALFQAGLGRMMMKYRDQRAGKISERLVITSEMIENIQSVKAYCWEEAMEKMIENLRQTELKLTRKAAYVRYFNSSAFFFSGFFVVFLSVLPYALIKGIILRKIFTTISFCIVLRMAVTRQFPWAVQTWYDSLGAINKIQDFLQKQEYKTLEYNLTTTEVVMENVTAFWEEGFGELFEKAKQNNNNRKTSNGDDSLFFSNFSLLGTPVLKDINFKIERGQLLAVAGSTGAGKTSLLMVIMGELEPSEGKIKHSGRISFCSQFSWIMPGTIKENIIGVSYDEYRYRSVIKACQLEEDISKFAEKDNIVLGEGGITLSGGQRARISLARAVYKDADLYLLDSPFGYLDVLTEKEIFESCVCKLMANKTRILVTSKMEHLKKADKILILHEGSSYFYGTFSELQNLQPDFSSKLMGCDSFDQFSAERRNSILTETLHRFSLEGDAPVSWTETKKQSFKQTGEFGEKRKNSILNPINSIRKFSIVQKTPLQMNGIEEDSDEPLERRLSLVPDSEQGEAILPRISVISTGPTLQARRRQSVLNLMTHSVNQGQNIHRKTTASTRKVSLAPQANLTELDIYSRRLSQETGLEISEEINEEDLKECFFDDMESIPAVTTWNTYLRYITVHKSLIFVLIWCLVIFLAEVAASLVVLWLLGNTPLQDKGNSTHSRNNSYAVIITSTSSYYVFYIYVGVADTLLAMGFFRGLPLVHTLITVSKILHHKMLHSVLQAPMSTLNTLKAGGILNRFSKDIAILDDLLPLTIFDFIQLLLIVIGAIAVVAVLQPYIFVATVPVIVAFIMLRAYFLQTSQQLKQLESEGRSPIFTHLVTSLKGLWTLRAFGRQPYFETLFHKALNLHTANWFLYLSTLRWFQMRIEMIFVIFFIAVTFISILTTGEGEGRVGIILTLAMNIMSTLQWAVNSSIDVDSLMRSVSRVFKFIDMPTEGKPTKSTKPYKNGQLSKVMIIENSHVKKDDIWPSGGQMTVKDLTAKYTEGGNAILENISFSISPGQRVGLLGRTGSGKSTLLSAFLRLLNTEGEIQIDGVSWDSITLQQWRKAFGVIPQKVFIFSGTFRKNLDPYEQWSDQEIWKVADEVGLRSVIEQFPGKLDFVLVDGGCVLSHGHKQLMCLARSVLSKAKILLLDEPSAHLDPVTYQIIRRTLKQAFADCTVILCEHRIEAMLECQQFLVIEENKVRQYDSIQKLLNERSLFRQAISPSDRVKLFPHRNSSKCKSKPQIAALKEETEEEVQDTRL
Source text: 6.1. YFP-Halide Influx Assay for the CFTR-ΔF508 Mutation
(§1) The YFP halide influx assay measures the functionality of the cystic fibrosis Transmembrane Conductance regulator (CFTR) channels in the cystic fibrosis bronchial epithelium cell line CFBE41o-. The assay is used to evaluate the capacity of compounds to increase the open probability of existing CFTR channels in the membrane. It makes use of the observation that the yellow fluorescent protein (YFP) variant YFP H148Q, I152L has its fluorescence substantially quenched by halide ions like Cl^− and I^−. (Galietta et al., 2001; Nagai et al., 2002)
For this purpose, CFBE410-cells are seeded in 96 well plates (6000 CFBE cells/well). One day after seeding, the CFBE cells are transduced with adenoviral vectors that direct the expression of the CFTR ΔF508 mutant and of the YFP reporter. Cells are incubated at 27° C., 5% CO2 for 24 hours so as to allow for the proper folding and migration to the membrane of the CFTR channel or treated with a CFTR modulator during 24 h at 37° C.
(§2) The F induced quenching of fluorescence is recorded immediately after injection of I^− for 7 seconds. The capacity of a compound to increase the channel opening is directly correlated with the decrease in fluorescence, and is expressed as (1-(fluorescence after 7 seconds (F)/fluorescence before injection (F0))) and an EC50 can be derived from a (1−F/F0) vs compound concentration plot.

CFTR ΔF508 mutant [2] = target: T1, CFTR ΔF508 mutant; assay: YFP-halide influx assay for the CFTR-ΔF508 mutation (384 well, CFBE41o- cells, FDSS/μCell); conditions: forskolin 10.67 μM, fluorescence after 36 seconds, read-out: EC50 measured by YFP-halide influx assay for the CFTR-ΔF508
Method in brief: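 CFBE41o- cells were adenovirally transduced with ΔF508 CFTR and the YFP H148Q/I152L reporter. Cells were then held 24 h at 27 °C or treated 24 h at 37 °C with a CFTR modulator. Iodide-induced quench was recorded for 2 min, and EC50 was derived from 1−F/F0 at 36 s against compound concentration.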

CFTR G551D mutant = target: T2, CFTR G551D mutant (Homo sapiens, UniProt P13569, G551D); assay: YFP-halide influx assay for the CFTR-G551D mutation (HEK293 cells); conditions: read-out: EC50 measured by YFP-halide influx assay for the CFTR-G551D
T2 construct: expressed in transfected cells; host or cells: HEK293 (reverse transfection with plasmids)
T2 sequence (P13569 whole entry G551D): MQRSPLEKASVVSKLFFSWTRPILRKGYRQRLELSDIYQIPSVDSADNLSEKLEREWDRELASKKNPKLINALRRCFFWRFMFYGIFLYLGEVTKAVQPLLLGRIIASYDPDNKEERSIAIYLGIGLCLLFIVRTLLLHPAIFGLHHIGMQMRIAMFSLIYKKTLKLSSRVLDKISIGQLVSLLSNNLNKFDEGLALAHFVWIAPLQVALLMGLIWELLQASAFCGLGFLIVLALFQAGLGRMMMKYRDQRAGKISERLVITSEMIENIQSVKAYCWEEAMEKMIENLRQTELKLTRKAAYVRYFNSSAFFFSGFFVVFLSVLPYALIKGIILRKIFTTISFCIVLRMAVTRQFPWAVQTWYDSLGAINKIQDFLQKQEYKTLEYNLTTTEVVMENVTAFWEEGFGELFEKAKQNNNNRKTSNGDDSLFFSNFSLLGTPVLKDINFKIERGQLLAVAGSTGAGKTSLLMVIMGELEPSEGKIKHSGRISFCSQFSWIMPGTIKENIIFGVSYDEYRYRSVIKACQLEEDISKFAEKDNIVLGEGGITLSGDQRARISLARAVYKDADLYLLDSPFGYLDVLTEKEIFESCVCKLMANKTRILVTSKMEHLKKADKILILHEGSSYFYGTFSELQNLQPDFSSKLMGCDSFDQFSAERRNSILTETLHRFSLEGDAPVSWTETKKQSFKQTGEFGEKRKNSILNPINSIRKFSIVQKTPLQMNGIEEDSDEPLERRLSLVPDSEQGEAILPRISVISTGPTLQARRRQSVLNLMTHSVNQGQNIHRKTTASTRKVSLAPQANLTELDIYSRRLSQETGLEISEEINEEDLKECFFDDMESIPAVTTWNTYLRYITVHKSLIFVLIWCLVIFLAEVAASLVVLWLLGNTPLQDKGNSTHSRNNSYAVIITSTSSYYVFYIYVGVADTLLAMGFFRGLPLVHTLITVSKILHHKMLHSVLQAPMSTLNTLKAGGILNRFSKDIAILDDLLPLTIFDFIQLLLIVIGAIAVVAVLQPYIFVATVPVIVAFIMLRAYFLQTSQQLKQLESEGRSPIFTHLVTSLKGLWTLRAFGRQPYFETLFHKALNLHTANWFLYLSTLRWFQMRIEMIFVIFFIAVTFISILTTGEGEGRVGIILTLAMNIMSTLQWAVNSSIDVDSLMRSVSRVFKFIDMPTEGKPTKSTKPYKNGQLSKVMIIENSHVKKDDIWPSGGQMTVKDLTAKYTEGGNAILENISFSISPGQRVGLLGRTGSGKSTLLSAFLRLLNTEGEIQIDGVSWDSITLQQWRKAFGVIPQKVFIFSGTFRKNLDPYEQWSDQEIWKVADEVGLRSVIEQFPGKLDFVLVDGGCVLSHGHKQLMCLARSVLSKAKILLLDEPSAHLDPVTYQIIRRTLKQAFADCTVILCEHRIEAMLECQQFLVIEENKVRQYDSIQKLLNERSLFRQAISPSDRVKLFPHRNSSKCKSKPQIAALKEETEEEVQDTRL
Source text: 6.3. YFP-Halide Influx Assay for the CFTR-G551D Mutation
as §1, with “channels.” for “channels in the cystic fibrosis bronchial epithelium cell line CFBE41o-.”, “channel opening” for “open probability”, “existing mutant” for “existing”, “I152L, F47L” for “I152L”, “2001)” for “2001; Nagai et al., 2002)”
For this purpose, HEK293-cells are seeded in 96 well plates. During seeding, the cells are reverse-transfected with plasmid vectors that direct the expression of the CFTR G551D mutant and of the YFP reporter. Cells are incubated at 37° C., 5% CO2 for 24 hours so as to allow for sufficient expression of the CFTR protein.
as §2, with “I^−-induced” for “F induced”, “(1−(fluorescence” for “(1-(fluorescence”

[3] = compounds of the invention, 96 well, forskolin 10.67 μM
[4] = HEK293 cells expressing CFTR G551D and YFP reporter, forskolin 10.67 μM

| Structure (SMILES) | EC50 (CFTR ΔF508 mutant [1]; comparative compounds) [nM] | EC50 (CFTR ΔF508 mutant [1]; [3]) [nM] | EC50 (CFTR ΔF508 mutant [2]) [nM] | EC50 (CFTR G551D mutant; [4]) [nM] | EC50 (CFTR G551D mutant; comparative compounds, HEK293 cells) [nM] |
| --- | --- | --- | --- | --- | --- |
| NC(=O)c1c(NC(=O)c2ccccc2O)sc2c1CCNC2 [C, 2-(2-hydroxybenzamido)-4,5,6,7-tetrahydrothieno[2,3-c]pyridine-3-carboxamide, reference compound] | > 10000 |  |  |  |  |
| CC1(C)Cc2c(sc(NC(=O)c3ccccc3F)c2C(N)=O)C(C)(C)O1 [Compound 1, 2-(2-fluorobenzamido)-5,5,7,7-tetramethyl-5,7-dihydro-4H-thieno[2,3-c]pyran-3-carboxamide] |  | 12.2 | 65.6 | 282 |  |
| CC1(C)Cc2c(sc(NC(=O)c3ccccc3O)c2C(N)=O)C(C)(C)O1 [Compound 3, 2-(2-hydroxybenzamido)-5,5,7,7-tetramethyl-5,7-dihydro-4H-thieno[2,3-c]pyran-3-carboxamide] |  | 4.4 | 6.46 | 162 |  |
| CC1(C)Cc2c(sc(NC(=O)c3ccccc3C(F)(F)F)c2C(N)=O)C(C)(C)O1 [Compound 5, 5,5,7,7-tetramethyl-2-(2-(trifluoromethyl)benzamido)-5,7-dihydro-4H-thieno[2,3-c]pyran-3-carboxamide] |  | 63.4 | 47.8 | 764 |  |
| CC1(C)Cc2c(sc(NC(=O)c3ccc(F)cc3C(F)(F)F)c2C(N)=O)C(C)(C)O1 [Compound 7, 2-(4-fluoro-2-(trifluoromethyl)benzamido)-5,5,7,7-tetramethyl-5,7-dihydro-4H-thieno[2,3-c]pyran-3-carboxamide] |  | 60.2 | 70.3 | 1090 |  |
| CC1(C)Cc2c(sc(NC(=O)c3ccc(F)cc3F)c2C(N)=O)C(C)(C)O1 [Compound 8, 2-(2,4-difluorobenzamido)-5,5,7,7-tetramethyl-5,7-dihydro-4H-thieno[2,3-c]pyran-3-carboxamide] |  | 22.8 | 27.3 | 308 |  |
| Cc1cc(C(=O)Nc2sc3c(c2C(N)=O)CC(C)(C)OC3(C)C)[nH]n1 [Compound 11, N-(3-carbamoyl-5,5,7,7-tetramethyl-5,7-dihydro-4H-thieno[2,3-c]pyran-2-yl)-5-methyl-1H-pyrazole-3-carboxamide] |  | 27.2 | 12.6 | 590 |  |
| CC1(C)Cc2c(sc(NC(=O)c3cc(C(C)(C)C)[nH]n3)c2C(N)=O)C(C)(C)O1 [Compound 16, 5-tert-butyl-N-(3-carbamoyl-5,5,7,7-tetramethyl-5,7-dihydro-4H-thieno[2,3-c]pyran-2-yl)-1H-pyrazole-3-carboxamide] |  | 25.3 | 90.8 | 5250 |  |
| CC1(C)Cc2c(sc(NC(=O)c3nnc[nH]3)c2C(N)=O)C(C)(C)O1 [Compound 18, N-(3-carbamoyl-5,5,7,7-tetramethyl-5,7-dihydro-4H-thieno[2,3-c]pyran-2-yl)-1H-1,2,4-triazole-3-carboxamide] |  | 829 | 467 | 3330 |  |
| CC1(C)Cc2c(sc(NC(=O)c3cccc(F)n3)c2C(N)=O)C(C)(C)O1 [Compound 24, N-(3-carbamoyl-5,5,7,7-tetramethyl-5,7-dihydro-4H-thieno[2,3-c]pyran-2-yl)-6-fluoropicolinamide] |  | 314 | 234 |  |  |
| CC1(C)Cc2c(sc(NC(=O)c3ccccc3-c3ncn[nH]3)c2C(N)=O)C(C)(C)O1 [Compound 26, 2-(2-(1H-1,2,4-triazol-5-yl)benzamido)-5,5,7,7-tetramethyl-5,7-dihydro-4H-thieno[2,3-c]pyran-3-carboxamide] |  | 1270 |  |  |  |
| CN1CCc2[nH]nc(C(=O)Nc3sc4c(c3C(N)=O)CC(C)(C)OC4(C)C)c2C1 [Compound 31, N-(3-carbamoyl-5,5,7,7-tetramethyl-5,7-dihydro-4H-thieno[2,3-c]pyran-2-yl)-5-methyl-4,5,6,7-tetrahydro-1H-pyrazolo[4,3-c]pyridine-3-carboxamide] |  | 354 | 354 |  |  |
| Cn1ncc(C(=O)Nc2sc3c(c2C(N)=O)CC(C)(C)OC3(C)C)c1C(F)(F)F [Compound 137, N-(3-carbamoyl-5,5,7,7-tetramethyl-4H-thieno[2,3-c]pyran-2-yl)-1-methyl-5-(trifluoromethyl)pyrazole-4-carboxamide] |  |  | 128 | 2660 |  |
| CCCCc1ccc(C(=O)Nc2sc3c(c2C(N)=O)CC(C)(C)OC3(C)C)c(=O)[nH]1 [Compound 139, 6-butyl-N-(3-carbamoyl-5,5,7,7-tetramethyl-4H-thieno[2,3-c]pyran-2-yl)-2-oxo-1H-pyridine-3-carboxamide] |  |  | 57 | 577 |  |
| Cc1ccc(C(=O)Nc2sc3c(c2C(N)=O)CC(C)(C)OC3(C)C)cn1 [Compound 143, N-(3-carbamoyl-5,5,7,7-tetramethyl-4H-thieno[2,3-c]pyran-2-yl)-6-methyl-pyridine-3-carboxamide] |  |  | 153 | 2710 |  |
| NC(=O)c1c(NC(=O)c2ccccc2O)sc2c1CCOC2 [D, 2-(2-hydroxybenzamido)-5,7-dihydro-4H-thieno[2,3-c]pyran-3-carboxamide, reference compound] | 156 |  |  |  | > 10000 |

Continued, values first:

| EC50 (CFTR ΔF508 mutant [1]; comparative compounds) [nM] | EC50 (CFTR ΔF508 mutant [1]; [3]) [nM] | EC50 (CFTR ΔF508 mutant [2]) [nM] | EC50 (CFTR G551D mutant; [4]) [nM] | EC50 (CFTR G551D mutant; comparative compounds, HEK293 cells) [nM] | Structure (SMILES) |
| --- | --- | --- | --- | --- | --- |
|  | 952 | 197 | 3330 |  | COC(=O)C1(C(=O)Nc2sc3c(c2C(N)=O)CC(C)(C)OC3(C)C)CC1 [Compound 12, methyl 1-(3-carbamoyl-5,5,7,7-tetramethyl-5,7-dihydro-4H-thieno[2,3-c]pyran-2-ylcarbamoyl)cyclopropanecarboxylate] |
|  | 219 | 83 |  |  | CC(O)C(=O)Nc1sc2c(c1C(N)=O)CC(C)(C)OC2(C)C (stereo not drawn) [Compound 22, 2-(2-hydroxypropanamido)-5,5,7,7-tetramethyl-5,7-dihydro-4H-thieno[2,3-c]pyran-3-carboxamide] |
|  | 10000 |  |  |  | CC1(C)Cc2c(sc(NC(=O)C3CNC(=O)C3)c2C(N)=O)C(C)(C)O1 (stereo not drawn) [Compound 29, N-(3-carbamoyl-5,5,7,7-tetramethyl-5,7-dihydro-4H-thieno[2,3-c]pyran-2-yl)-5-oxopyrrolidine-3-carboxamide] |
|  | 1740 | 602 |  |  | CC(=O)OC1(C(=O)Nc2sc3c(c2C(N)=O)CC(C)(C)OC3(C)C)CCOCC1 [Compound 41, 4-(3-carbamoyl-5,5,7,7-tetramethyl-5,7-dihydro-4H-thieno[2,3-c]pyran-2-ylcarbamoyl)tetrahydro-2H-pyran-4-yl acetate] |
|  |  | 78.6 | 2020 |  | CC1(C)Cc2c(sc(NC(=O)c3cncs3)c2C(N)=O)C(C)(C)O1 [Compound 134, N-(3-carbamoyl-5,5,7,7-tetramethyl-4H-thieno[2,3-c]pyran-2-yl)thiazole-5-carboxamide] |
|  |  | 138 | 2030 |  | Cc1ncoc1C(=O)Nc1sc2c(c1C(N)=O)CC(C)(C)OC2(C)C [Compound 135, N-(3-carbamoyl-5,5,7,7-tetramethyl-4H-thieno[2,3-c]pyran-2-yl)-4-methyl-oxazole-5-carboxamide] |
|  |  | 99.5 | 1620 |  | Cc1cnc(C(=O)Nc2sc3c(c2C(N)=O)CC(C)(C)OC3(C)C)cn1 [Compound 141, N-(3-carbamoyl-5,5,7,7-tetramethyl-4H-thieno[2,3-c]pyran-2-yl)-5-methyl-pyrazine-2-carboxamide] |
|  |  | 12 | 2160 |  | CC1(C)Cc2c(sc(NC(=O)[C@](C)(O)C(F)(F)F)c2C(N)=O)C(C)(C)O1 [Compound 152, 5,5,7,7-tetramethyl-2-[[(2S)-3,3,3-trifluoro-2-hydroxy-2-methyl-propanoyl]amino]-4H-thieno[2,3-c]pyran-3-carboxamide] |
